Patent US20190119200A1, “TERTIARY AMIDES AND METHOD OF USE” (AbbVie Inc., priority 2016, published 2019)

What was measured:
Format in all cases: cell-based
LPAR1 [1] = biological target: T1, LPAR1 (Homo sapiens, UniProt Q92633); experiment: LPAR1 FLIPR Assay; details: U2OS cells stably expressing LPAR1, LPA (EC80), Calcium 6 FLIPR dye; for Emax: read-out: Maximum Inhibition
T1 construct: host or cells: U2OS
Procedure, shortened: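 U2OS cells stably expressing LPAR1 were loaded with Calcium 6 dye for 2 h at 37° C, preincubated 3 min with compound (11-point 3-fold series), then stimulated with LPA at EC80. Fluorescence at 515-575 nm was recorded by FLIPR; IC50 came from four-parameter logistic fits of ratio data.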

LPAR1 [2] = biological target: T1, LPAR1; experiment: IP-One HTRF Assay; details: U2OS cells stably expressing LPAR1, LPA stimulation, IP-One Tb HTRF kit; for Emax: read-out: Maximum Inhibition
Experimental: U2OS cells stably expressing LPAR1 (Life Technologies #K1519A) were plated at 20000 cells/well in growth medium (McCoy's 5A(Life Technologies #16600-082)) with 10% dFBS (Life Technologies #26400-036), 0.1 mM non-essential amino acids, 25 mM HEPES, 1 mM sodium pyruvate, 1% penicillin/streptomycin, 50 μg/mL hygromycin, and 100 μg/mL Geneticin® in tissue culture treated 384-well white plates (Greiner #781080) in humidified 5% CO2 at 37° C. overnight. On the day of the assay, culture medium was replaced with 30 μL/well of McCoy's 5A with 0.1% BSA. Cells were incubated in humidified 5% CO2 at 37° C. for 3 more hours. Compounds were 3-fold serial diluted from 2 mM for 11-points using dimethyl sulfoxide. 1 μL of compound in DMSO was diluted in 50 μL stimulation buffer from an IP-One Tb HTRF kit (Cisbio #62IPAPEB) immediately before assay. 15 μL/well of 1.33× compound in stimulation buffer was added to cells after removal of culture medium. After 20 minutes of incubation at 37° C., 5 μL/well of 8 μM LPA diluted in stimulation buffer with 0.1% fatty acid free BSA was added to cells. […]. To EC100 wells were added 4×20 μM LPA. To the cells were added 5 μL/well IP1-d2 conjugate and 5 μLwell IP1-K antibody after 2 hours of incubation at 37° C. Cells were incubated at room temperature for 1 hour (protected from light). The plate was then read at 665 nm and 615 nm using an EnVision® Multilabel Plate Reader. IC50 values were calculated from curve fits of the ratio data using a four-parameter logistic Hill equation (Assay Explorer 3.3 Client).

[3] = system: LPA-induced MCP-1 in NRK-49F cells; experiment: LPA-induced MCP-1 AlphaLISA assay; details: Rattus norvegicus, final LPA 10 μM, 7 hours; for Emax: read-out: Maximum Inhibition
Procedure, shortened: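 NRK-49F rat fibroblasts, serum-starved overnight, pretreated with compound for 30 min at 37 °C (1% DMSO final), then stimulated with 10 μM LPA final. MCP-1 in the supernatant was measured by mouse/rat CCL2 AlphaLISA. IC50 values came from four-parameter logistic fits of the ratio data.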

T1 sequence (Q92633 whole entry): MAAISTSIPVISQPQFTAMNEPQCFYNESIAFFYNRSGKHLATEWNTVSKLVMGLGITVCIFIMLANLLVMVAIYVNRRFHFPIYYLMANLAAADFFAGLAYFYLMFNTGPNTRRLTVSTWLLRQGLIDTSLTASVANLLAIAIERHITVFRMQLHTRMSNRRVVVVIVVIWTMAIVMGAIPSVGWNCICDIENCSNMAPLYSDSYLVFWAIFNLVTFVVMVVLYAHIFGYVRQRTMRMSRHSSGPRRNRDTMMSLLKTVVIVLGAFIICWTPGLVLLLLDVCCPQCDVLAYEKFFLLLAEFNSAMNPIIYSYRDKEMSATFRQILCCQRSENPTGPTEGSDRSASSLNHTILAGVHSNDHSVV

| Structure (SMILES) | IC50 (LPAR1 [1]) [nM] | Emax (LPAR1 [1]) [%] | IC50 (LPAR1 [2]) [nM] | Emax (LPAR1 [2]) [%] | IC50 [3] [nM] | Emax [3] [%] |
| --- | --- | --- | --- | --- | --- | --- |
| COc1cc(C(=O)N(CCCCC(=O)O)CCCc2ccc(C)s2)cc(OC)c1C [Example 41, 5-{(3,5-dimethoxy-4-methylbenzoyl)[3-(5-methylthiophen-2-yl)propyl]amino}pentanoic Acid] | 22 | 97 | 191 | 100 | 335 | 88 |
| COc1cc(C(=O)N(CCCc2ccccc2)CCCC(C)C(=O)O)cc(OC)c1C (stereo not drawn) [Example 54, 5-[(3,5-dimethoxy-4-methylbenzoyl)(3-phenylpropyl)amino]-2-methylpentanoic Acid] | 15 | 100 | 22 | 91 | 55 | 96 |
| COc1cc(C(=O)N(CCCc2ccccc2)CCOC(C)(C)C(=O)O)cc(OC)c1C [Example 55, 2-{2-[(3,5-dimethoxy-4-methylbenzoyl)(3-phenylpropyl)amino]ethoxy}-2-methylpropanoic Acid] | 22 | 100 | 89 | 98 | 111 | 93 |
| COc1cc(C(=O)N(CCCc2ccccc2)CCOCCC(=O)O)cc(OC)c1C [Example 56, 3-{2-[(3,5-dimethoxy-4-methylbenzoyl)(3-phenylpropyl)amino]ethoxy}propanoic Acid] | 21 | 95 | 424 | 100 | 1240 | 79 |
| COc1cc(C(=O)N(CCCc2ccccc2)CCOCC2(C(=O)O)CC2)cc(OC)c1C [Example 59, 1-({2-[(3,5-dimethoxy-4-methylbenzoyl)(3-phenylpropyl)amino]ethoxy}methyl)cyclopropane-1-carboxylic Acid] | 23 | 100 | 449 | 88 | 127 | 93 |
| COc1cc(C(=O)N(CCCc2ccccc2)CCSCC2(C(=O)O)CC2)cc(OC)c1C [Example 61, 1-[({2-[(3,5-dimethoxy-4-methylbenzoyl)(3-phenylpropyl)amino]ethyl}sulfanyl)methyl]cyclopropane-1-carboxylic Acid] | 20 | 98 | 114 | 85 | 147 | 92 |
| COc1cc(C(=O)N(CCCC(=O)O)CCCc2ccccc2)cc(OC)c1C [Example 69, 4-[(3,5-dimethoxy-4-methylbenzoyl)(3-phenylpropyl)amino]butanoic Acid] | > 30000 | 38 | 3820 | 85 | 1660 | 62 |
| CNS(=O)(=O)NC(=O)CCCCN(CCCc1ccccc1)C(=O)C1(c2ccc(OC)cc2)CC1 [Example 73, 1-(4-methoxyphenyl)-N-{5-[(methylsulfamoyl)amino]-5-oxopentyl}-N-(3-phenylpropyl)cyclopropane-1-carboxamide] | 60 | 65 | > 30000 | 44 | 5160 | 79 |
| CNS(=O)(=O)NC(=O)CCCCN(CCCc1ccccc1)C(=O)c1cc(OC)cc(OC)c1 [Example 74, 3,5-dimethoxy-N-{5-[(methylsulfamoyl)amino]-5-oxopentyl}-N-(3-phenylpropyl)benzamide] | 79 | 67 | 1180 | 63 | 3880 | 77 |
| COc1cc(OC)cc(C(=O)N(CCCCP(=O)(O)O)CCCc2ccccc2)c1 [Example 75, {4-[(3,5-dimethoxybenzoyl)(3-phenylpropyl)amino]butyl}phosphonic Acid] | 20 | 72 | 1070 | 77 | 3250 | 65 |
| CCOP(=O)(O)CCCCN(CCCc1ccccc1)C(=O)c1cc(OC)cc(OC)c1 [Example 76, ethyl hydrogen {4-[(3,5-dimethoxybenzoyl)(3-phenylpropyl)amino]butyl}phosphonate] | 48 | 76 | 5830 | 65 | > 10000 | 36 |
| COc1cc(OC)cc(C(=O)N(CCCc2ccccc2)CCCC(C)C(=O)O)c1 (stereo not drawn) [Example 98, 5-[(3,5-dimethoxybenzoyl)(3-phenylpropyl)amino]-2-methylpentanoic Acid] | 29 | 87 | 836 | 76 | 4580 | 66 |
| COc1cc(OC)cc(C(=O)N(CCCc2ccccc2)CCCC(C)(C)C(=O)O)c1 [Example 108, 5-[(3,5-dimethoxybenzoyl)(3-phenylpropyl)amino]-2,2-dimethylpentanoic Acid] | 26 | 94 | 230 | 82 | 668 | 83 |
| COc1cc(C(=O)N(CCCc2c(F)cccc2F)CCOCC(=O)O)cc(OC)c1C [Example 128, (2-{[3-(2,6-difluorophenyl)propyl](3,5-dimethoxy-4-methylbenzoyl)amino}ethoxy)acetic Acid] | 23 | 89 | 1800 | 101 | 1080 | 78 |
| COc1cc(C(=O)N(CCCCC(=O)O)CCCc2ccc(C)o2)cc(OC)c1C [Example 138, 5-{(3,5-dimethoxy-4-methylbenzoyl)[3-(5-methylfuran-2-yl)propyl]amino}pentanoic Acid] | 13 | 89 | 201 | 87 | 1010 | 85 |
| COc1cc(C(=O)N(CCCCC(=O)NS(=O)(=O)c2ccccn2)CCCc2ccccc2)cc(OC)c1C [Example 141, 3,5-dimethoxy-4-methyl-N-{5-oxo-5-[(pyridine-2-sulfonyl)amino]pentyl}-N-(3-phenylpropyl)benzamide] | 28 | 94 | 200 | 76 | 143 | 84 |
